The source of these data is patent US9745318B2, “Fluorescent red emitting functionalizable calcium indicators” (PARIS SCIENCES ET LETTRES—QUARTIER LATIN, priority 2013, dated 2017).

Series [1] can be described thus: Determination of fluorescence quantum yield. It is filed as physicochemical. Conditions: rhodamine 101 as reference standard. As to the method:
The quantum yields φ of Ia-1 were calculated from the slope of the integrated spectral emission (545 to 700 nm) of Ia-1 in the presence (2 mM) or absence (0 mM, 10 mM EGTA) of Ca^2+ vs. absorbance at 535 nm using rhodamine 101 (φ=1.0 in absolute ethanol) as a reference standard. A solvent correction was applied for the comparison of the fluorescence quantum yields of Ia-1 and rhodamine 101. The quantum yields φ were calculated using the following equation where φ is the quantum yield, s is the value of the observed slope and η is the refractive index of the solvent used.
[formula] • The calculations gave: φCalcium free=0.0089 • φCa2+=0.4541 II.4. Two-Photon Excitation of Compound Ia-1

Series [2] is described as follows: Two-photon excitation, fluorescence intensity vs. excitation power. It is filed as physicochemical. As to the method:
Experiments of two-photon excitation of Ia-1 were conducted. Results are represented on FIG. 8. The power function fit to the data gives a power of 1.92±0.10—within one SD of 2.0, as expected for two-photon excitation evidencing that the measured fluorescence was indeed two-photon excited.

In a further series the test system is Purkinje cells. The series is described as follows: High-speed random access two-photon microscopy with climbing fiber stimulation in cerebellar slices. In kind it is cell-based, mice. To be noted: exponential fit, n=59 spines from 7 cells, 300 μM in pipette. As for the experimental part: For high speed imaging experiments, acute 260 μm thick slices were obtained from the cerebellar vermis of P60 mice and superfused with extracellular saline medium.
Climbing fiber stimulation-evoked transient [Ca^2+] changes in Purkinje cell spines were recorded at high acquisition rate (>2 kHz) by two-photon random-access microscopy, a technique is based on the use of acousto-optic deflectors (AODs), which enable selective scanning of defined points. Purkinje cells were recorded in current-clamp mode, using 2-3MΩ patch pipettes containing 300 μM Ia-1. Recordings were obtained by use of a Multiclamp 700B (Molecular Devices). Following the dialysis of Ia-1, Purkinje cells in slices were imaged under a 25× Leica water immersion objective (HCX IRAPO L 25×/0.95). […] A multifunction card (NI-PCI-MIO 16 E-4) was used to pass all the triggers necessary to synchronize the imaging and the electrophysiology and to control the piezo-electric device that moves the objective in Z. Fluorescence photons were detected by cooled AsGaP photomultipliers (H7421-40, Hamamatsu) discriminated and counted on a fast digital card.
During stimulation of the climbing fiber, fluorescence traces were acquired from multiple spines (range: 4 to 14) at rates over 1 kHz (range 2.2 to 4.8 kHz) (FIGS. 11e and 11f).

A short description of series [3]: Fluorimetric titration against Ca2+ (cuvette calibration, Hill fit). It is filed as binding. Conditions: for Kd: 100 mM KCl, 30 mM MOPS, pH 7.2, Hill fit. As for the experimental part:
All the solvents were of analytical grade. Chemicals were purchased from commercial sources. ^1H-NMR and ^13C-NMR were measured on a Bruker avance 111-300 MHz spectrometer with chemical shifts reported in ppm (TMS as internal standard). Mass spectra were measured on a Focus GC/DSQ II spectrometer (ThermoScientific) for IC and an API 3000 spectrometer (Applied Biosystems, PE Sciex) for ES. All pH measurements were made with a Mettler Toledo pH-Meter. Fluorescence spectra were recorded on a JASCO FP-8300 spectrofluorometer. Absorption spectra were determined on a VARIAN CARY 300 Bio UV-Visible spectrophotometer. All measurements were done at a set temperature of 25° C. The purity of the dyes were checked by RP-HPLC C-18, eluant: ACN 0.1% TFA/Water 0.1% TFA, method: 20/80 to 100/0 within 20 min then 100/0 for 10 min. detection at λAbs=254 nm. The apparent dissociation constant for calcium (Kd Ca^2+) was measured with a calcium calibration buffer kit from Invitrogen.
A fluorimetric titration of Ia-1 (5 μM) against Ca^2+ in a buffer containing (in mM) 100 KCl and 30 MOPS (pH 7.2) was performed.
A fluorimetric titration of Ia-1-Dextran-6000 conjugate against Ca^2+ in a buffer containing (in mM) 100 KCl and 30 MOPS (pH 7.2) was also conducted.
A fluorimetric titration of Ic-1 and Ic-2 against Ca^2+ in a buffer containing (in mM) 100 KCl and 30 MOPS (pH 7.2) was also conducted. […] The normalised fluorimetric titrations against Ca^2+ of Ia-1, Ic-1 and Ic-2 are represented in FIG. 13.

The conditions of series [4]: in absolute ethanol; cited from earlier work.
The mark [5] stands for this setting: read-out: apparent dissociation constant for Ca2+.

“And” between values parts separate entries of the source, which are not always exact repeats. Identical values can stand only once. Like-named read-outs stand apart in the source and are kept apart here.

On to `[N-]=[N+]=NCCCCCCOc1cc(OCCOc2ccccc2N(CC(=O)O)CC(=O)O)c(N(CC(=O)O)CC(=O)O)cc1C1=c2cc3c4c(c2Oc2c1cc1c5c2CCCN5CCC1)CCC[N+]=4CCC3` [Ia-1], for which the “quantum yield φ, calcium free” value in series [1] (0 mM Ca2+, 10 mM EGTA) turned out to be 0.0089. Besides, the “quantum yield φ, Ca2+ bound (maximum quantum yield)” value in series [1] (2 mM Ca2+) is 0.4541 and 0.45. In addition, the “power of the power function fit (fluorescence intensity vs. excitation power)” value in series [2] came to 1.92±0.10. Besides, the “rise time τ of Ca2+ transients” value in the series on Purkinje cells came out at 1.30 ± 0.26 ms. For the same compound, the Kd in series [3] (read-out: apparent dissociation constant (KD) for Ca2+) was determined as 258 nM. In addition, the “increase of fluorescence on binding [Ca2+]” value in series [3] (cuvette calibration experiments) was found to be 50 fold.
For `[N-]=[N+]=NCCCCCCOc1cc(OCCOc2ccc(Cl)cc2N(CC(=O)O)CC(=O)O)c(N(CC(=O)O)CC(=O)O)cc1C1=c2cc3c4c(c2Oc2c1cc1c5c2CCCN5CCC1)CCC[N+]=4CCC3` [Ic-1], the Kd in series [3] (setting [5]) was found to be 1700 nM.
Same read-out and setting: in the case of `[N-]=[N+]=NCCCCCCOc1cc(OCCOc2cc(F)ccc2N(CC(=O)O)CC(=O)O)c(N(CC(=O)O)CC(=O)O)cc1C1=c2cc3c4c(c2Oc2c1cc1c5c2CCCN5CCC1)CCC[N+]=4CCC3` [Ic-2] it was 320 nM.
For the compound `O=C(O)c1ccccc1C1=c2cc3c4c(c2Oc2c1cc1c5c2CCCN5CCC1)CCC[N+]=4CCC3.[Cl-]` [rhodamine 101], in series [4], the “quantum yield φ of reference standard” value is given as 1.0.
